In patent US9850283B2, “Macrocyclic inhibitors of the PD-1/PD-L1 and CD80(B7-1)/PD-L1 protein/protein interactions” (BRISTOL-MYERS SQUIBB COMPANY, priority 2013, dated 2017):
Read-outs that look alike come from different tables or passages of the source. Positions of bridges follow the written chain, without caps; N, C: chain ends. Non-standard residues stand in square brackets, D forms with d. Residues, ends and D or L forms follow the SMILES beside them. ξ: configuration not given here. *: point of attachment. Ala(benzothiazol-2-yl) = N[C@@H](Cc1nc2ccccc2s1)C(=O)O; Trp(1-Me) = Cn1cc(C[C@H](N)C(=O)O)c2ccccc21; Phe(3-OMe) = COc1cccc(C[C@H](N)C(=O)O)c1; Bta = N[C@@H](Cc1csc2ccccc12)C(=O)O; ξPro(4R-OH) = O=C(O)C1C[C@@H](O)CN1; ξPro(4,4-F2) = O=C(O)C1CC(F)(F)CN1; Hyp = O=C(O)[C@@H]1C[C@@H](O)CN1; ξW = NC(Cc1c[nH]c2ccccc12)C(=O)O; Ile(3ξ) = CCC(C)[C@H](N)C(=O)O; dNMeNle = CCCC[C@@H](NC)C(=O)O; NMeNle = CCCC[C@H](NC)C(=O)O; NMeA = CN[C@@H](C)C(=O)O; dDap = NC[C@@H](N)C(=O)O; 2Furoyl = O=C(c1ccco1)*; Dab = NCC[C@H](N)C(=O)O; Dap = NC[C@H](N)C(=O)O; ξP = O=C(O)C1CCCN1; ξC = NC(CS)C(=O)O; Sar = CNCC(=O)O

How the values were obtained:
Human PD-L1/PD-1 = biological target: T1, Human PD-L1/PD-1 (Homo sapiens, UniProt Q9NZQ7); assay: HTRF PD-1-Ig/PD-L1-His binding assay (human PD-L1); settings: cluster symbol; read-out: HTRF IC50 cluster
T1 construct: made in house; host or cells: HEK293T
Method in brief: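 Ig- and His-fused extracellular PD-1/PD-L1 binding in BSA/Tween-20 dPBS. HTRF with Eu anti-Ig (1 nM final) and APC anti-His (20 nM final).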

[1] = biological target: T2, LK35.2-hPD-L1 cells / PE-labeled PD-1-Ig (Homo sapiens, UniProt Q9NZQ7); assay: LK35.2-hPD-L1 cell binding high-content screening assay; type: cell-based; settings: cluster symbol, read-out: CBA IC50 cluster
T2 construct: expressed in transfected cells; host or cells: LK35.2 mouse B cell line
Method in brief: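 Mouse LK35.2 B cells stably over-expressing human PD-L1, cultured overnight, treated with compound plus PE-labeled human PD-1-Ig (1 nM final) in RPMI/10% FCS for 1 h at 37 °C. After washing, bound fluorescence quantified by high-content imaging.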

[2] = cell binding assay, cell line not given
[3] = cell line of CBA not given (LK35.2-hPD-L1 or 293T-hPD-L1)

T1 sequence (Q9NZQ7 with tags, fused parts or gaps): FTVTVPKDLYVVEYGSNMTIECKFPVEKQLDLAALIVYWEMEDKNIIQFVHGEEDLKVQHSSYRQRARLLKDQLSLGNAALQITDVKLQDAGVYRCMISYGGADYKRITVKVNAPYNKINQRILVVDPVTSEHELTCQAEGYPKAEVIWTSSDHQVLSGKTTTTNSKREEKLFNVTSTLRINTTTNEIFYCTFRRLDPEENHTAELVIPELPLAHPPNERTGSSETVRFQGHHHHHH
T2 sequence (Q9NZQ7 19-290): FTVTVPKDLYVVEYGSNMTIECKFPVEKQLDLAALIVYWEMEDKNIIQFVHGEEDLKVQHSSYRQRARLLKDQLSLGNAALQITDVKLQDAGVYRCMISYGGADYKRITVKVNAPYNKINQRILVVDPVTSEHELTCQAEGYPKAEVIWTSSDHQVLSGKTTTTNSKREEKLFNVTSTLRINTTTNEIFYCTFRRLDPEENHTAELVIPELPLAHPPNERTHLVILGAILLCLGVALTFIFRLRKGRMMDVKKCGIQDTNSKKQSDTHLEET

| Structure (SMILES) | IC50 (Human PD-L1/PD-1) [nM] | IC50 [1, 2] [nM] | IC50 [1, 3] [nM] |
| --- | --- | --- | --- |
| CCCC[C@H]1C(=O)N(C)[C@@H](C)C(=O)N[C@@H](CCCNC(=N)N)C(=O)NC(C(=O)NCC(N)=O)CSCC(=O)N[C@@H](Cc2ccc(O)cc2)C(=O)N(C)[C@@H](C)C(=O)N[C@@H](CC(N)=O)C(=O)N2CCC[C@H]2C(=O)N[C@@H](Cc2cnc[nH]2)C(=O)N[C@@H](CC(C)C)C(=O)N2CCC[C@H]2C(=O)N[C@@H](Cc2c[nH]c3ccccc23)C(=O)N[C@@H](CO)C(=O)N[C@@H](Cc2csc3ccccc23)C(=O)N1C (stereo partly shown) [Example 9053] ({CH2CO}-Y[NMeA]NPHLPWS[Bta][NMeNle][NMeA]R[ξC]G-NH2; thioether N-14) | 6.76 to 30.3 | 4.78 to 72.9 |  |
| CCCC[C@@H]1C(=O)N(C)[C@H](CCCC)C(=O)N[C@@H](CN)C(=O)N[C@@H](C(=O)NCC(N)=O)CSCC(=O)N[C@@H](Cc2ccc(O)cc2)C(=O)N2CCCC2C(=O)N[C@H](CC(=O)O)C(=O)N2CCC[C@H]2C(=O)N[C@H](CN)C(=O)N[C@@H](CCC(N)=O)C(=O)N2CCCC2C(=O)N[C@H](Cc2c[nH]c3ccccc23)C(=O)N[C@@H](CCN)C(=O)N[C@@H](Cc2c[nH]c3ccccc23)C(=O)N1C (stereo partly shown) [Example 1213] ({CH2CO}-Y[ξP][dD]P[dDap]Q[ξP][dW][Dab]W[dNMeNle][dNMeNle][Dap][dC]G-NH2; thioether N-14) | 6.76 to 30.3 |  | 4.78 to 72.9 |
| CCCC[C@H]1C(=O)N(C)[C@@H](CCCC)C(=O)N[C@@H](C)C(=O)N[C@H](C(=O)NCC(N)=O)CSCC(=O)N[C@@H](Cc2ccc(O)cc2)C(=O)N(C)[C@@H](C)C(=O)N[C@@H](CC(=O)O)C(=O)N2CCC[C@H]2C(=O)N[C@@H](Cc2cnc[nH]2)C(=O)N[C@@H](CCC(=O)O)C(=O)N2C[C@H](O)C[C@H]2C(=O)N[C@@H](Cc2c[nH]c3ccccc23)C(=O)N[C@@H](CCN)C(=O)N[C@@H](Cc2c[nH]c3ccccc23)C(=O)N1C [Example 5037] ({CH2CO}-Y[NMeA]DPHE[Hyp]W[Dab]W[NMeNle][NMeNle]ACG-NH2; thioether N-14) | 0.385 to 6.74 | 0.158 to 4.71 |  |
| CCCC[C@H]1C(=O)N(C)[C@@H](CCCC)C(=O)N[C@@H](CCCNC(=N)N)C(=O)N[C@H](C(=O)NCC(N)=O)CSCC(=O)N[C@@H](Cc2ccccc2)C(=O)N(C)[C@@H](C)C(=O)N[C@@H](CC(N)=O)C(=O)N2CCC[C@H]2C(=O)N[C@@H](Cc2cnc[nH]2)C(=O)N[C@@H](CC(C)C)C(=O)N(C)CC(=O)N[C@@H](Cc2cccc(OC)c2)C(=O)N[C@@H](CO)C(=O)N[C@@H](Cc2c[nH]c3ccccc23)C(=O)N1C [Example 1085] ({CH2CO}-F[NMeA]NPHL[Sar][Phe(3-OMe)]SW[NMeNle][NMeNle]RCG-NH2; thioether N-14) | > 30.5 |  | > 74.3 |
| CCCC[C@H]1C(=O)N(C)[C@@H](CCCC)C(=O)N[C@@H](CCN)C(=O)N[C@H](C(=O)NCC(N)=O)CSCC(=O)N[C@@H](Cc2ccc(O)cc2)C(=O)N(C)[C@@H](C)C(=O)N[C@@H](CC(N)=O)C(=O)N2CCC[C@H]2C(=O)N[C@@H](Cc2cnc[nH]2)C(=O)N[C@@H](CCC(N)=O)C(=O)N2C[C@H](O)C[C@H]2C(=O)N[C@@H](Cc2c[nH]c3ccccc23)C(=O)N[C@@H](CCN)C(=O)N[C@@H](Cc2c[nH]c3ccccc23)C(=O)N1C [Example 5043] ({CH2CO}-Y[NMeA]NPHQ[Hyp]W[Dab]W[NMeNle][NMeNle][Dab]CG-NH2; thioether N-14) | 6.76 to 30.3 | 0.158 to 4.71 |  |
| CCCC[C@H]1C(=O)N(C)[C@@H](CCCC)C(=O)N[C@@H](CCCNC(=N)N)C(=O)N[C@H](C(=O)NCC(N)=O)CSCC(=O)N[C@@H](Cc2ccc(O)cc2)C(=O)N(C)[C@@H](C)C(=O)N[C@@H](CC(N)=O)C(=O)N2CCC[C@H]2C(=O)N[C@@H](Cc2cnc[nH]2)C(=O)N[C@@H](CC(C)C)C(=O)N2CCC[C@H]2C(=O)N[C@@H](Cc2c[nH]c3ccccc23)C(=O)N[C@@H](CO)C(=O)N[C@@H](Cc2nc3ccccc3s2)C(=O)N1C [Example 1129] ({CH2CO}-Y[NMeA]NPHLPWS[Ala(benzothiazol-2-yl)][NMeNle][NMeNle]RCG-NH2; thioether N-14) | > 30.5 |  | > 74.3 |
| CCCC[C@H]1C(=O)N(C)[C@@H](CCCC)C(=O)N[C@@H](CN)C(=O)N[C@H](C(=O)NCC(N)=O)CSCC(=O)N[C@@H](Cc2ccc(O)cc2)C(=O)N(C)[C@@H](C)C(=O)N[C@@H](CC(N)=O)C(=O)N2CCC[C@H]2C(=O)N[C@@H](Cc2cnc[nH]2)C(=O)N[C@@H](CC(C)C)C(=O)N2C[C@H](O)C[C@H]2C(=O)N[C@@H](Cc2c[nH]c3ccccc23)C(=O)N[C@@H](CO)C(=O)N[C@@H](Cc2c[nH]c3ccccc23)C(=O)N1C [Example 1132] | 6.76 to 30.3 |  | 0.158 to 4.71 |
| CCCC[C@H]1C(=O)N(C)CC(=O)N[C@@H](CC(=O)O)C(=O)N[C@@H](Cc2ccccc2)C(=O)N(C)[C@@H](Cc2ccccc2)C(=O)N[C@@H](Cc2ccc(O)cc2)C(=O)N(C)CC(=O)N[C@@H](Cc2c[nH]c3ccccc23)C(=O)N[C@@H](Cc2ccc(O)cc2)C(=O)N[C@@H](CC(C)C)C(=O)N[C@H](C(=O)NCC(N)=O)CSCC(=O)N[C@@H](Cc2ccccc2)C(=O)N(C)[C@@H](Cc2ccccc2)C(=O)N1C [Example 3543] (HELM PEPTIDE1{[O=C(C[*:3])[*:2]].F.[meF].[CCCC[C@@H](C(=O)[*:2])N(C)[*:1]].[Sar].D.F.[meF].Y.[Sar].W.Y.L.C.G.[am]}$PEPTIDE1,PEPTIDE1,1:R3-14:R3$$$V2.0) | > 30.5 | > 74.3 |  |
| CCCC[C@H]1C(=O)N(C)[C@@H](CCCC)C(=O)N[C@@H](C)C(=O)N[C@H](C(=O)NCC(N)=O)CSCC(=O)N[C@@H](Cc2ccc(O)cc2)C(=O)N(C)[C@@H](C)C(=O)N[C@@H](CC(=O)O)C(=O)N2CCC[C@H]2C(=O)N[C@@H](Cc2cnc[nH]2)C(=O)N[C@@H](CC(C)C)C(=O)N2C[C@H](O)C[C@H]2C(=O)N[C@@H](Cc2c[nH]c3ccccc23)C(=O)N[C@@H](CO)C(=O)N[C@@H](Cc2c[nH]c3ccccc23)C(=O)N1C [Example 1165] | 0.385 to 6.74 |  | 0.158 to 4.71 |
| CCCC[C@H]1C(=O)N(C)[C@@H](CCCC)C(=O)N[C@@H](CCCNC(=N)N)C(=O)N[C@H](C(=O)NCC(N)=O)CSCC(=O)N[C@@H](Cc2ccc(O)cc2)C(=O)N(C)[C@@H](C)C(=O)N[C@@H](CC(N)=O)C(=O)N2CCC[C@H]2C(=O)N[C@@H](Cc2cnc[nH]2)C(=O)N[C@@H](CC(C)C)C(=O)N2CCC[C@H]2C(=O)N[C@@H](Cc2c[nH]c3ccccc23)C(=O)N[C@@H](CO)C(=O)N[C@@H](Cc2cn(C)c3ccccc23)C(=O)N1C [Example 1130] ({CH2CO}-Y[NMeA]NPHLPWS[Trp(1-Me)][NMeNle][NMeNle]RCG-NH2; thioether N-14) | > 30.5 |  | 0.158 to 4.71 |
| CCCC[C@H]1C(=O)N(C)[C@@H](CCCC)C(=O)N[C@@H](CCCNC(=N)N)C(=O)N[C@H](C(=O)NCC(N)=O)CSCC(=O)N[C@@H](Cc2ccccc2)C(=O)N(C)[C@@H](C)C(=O)N[C@@H](CC(N)=O)C(=O)N2CCC[C@H]2C(=O)N[C@@H](Cc2c[nH]cn2)C(=O)N[C@@H](CC(C)C)C(=O)N[C@@H](CCNC(=O)c2ccco2)C(=O)N[C@@H](Cc2c[nH]c3ccccc23)C(=O)N[C@@H](CO)C(=O)N[C@@H](Cc2c[nH]c3ccccc23)C(=O)N1C [Example 1023] ({CH2CO}-F[NMeA]NPHL[Dab](2Furoyl)WSW[NMeNle][NMeNle]RCG-NH2; thioether N-14) | > 30.5 |  | > 74.3 |
| CCCC[C@H]1C(=O)N(C)[C@@H](CCCC)C(=O)N[C@@H](CN)C(=O)N[C@H](C(=O)NCC(N)=O)CSCC(=O)N[C@@H](Cc2ccc(O)cc2)C(=O)N2CCC[C@H]2C(=O)N[C@@H](CC(=O)O)C(=O)N2CCC[C@H]2C(=O)N[C@@H](CN)C(=O)N[C@@H](CCC(N)=O)C(=O)N2C[C@H](O)CC2C(=O)N[C@@H](Cc2c[nH]c3ccccc23)C(=O)N[C@@H](CCN)C(=O)N[C@@H](Cc2csc3ccccc23)C(=O)N1C (stereo partly drawn) [Example 1228] ({CH2CO}-YPDP[Dap]Q[ξPro(4R-OH)]W[Dab][Bta][NMeNle][NMeNle][Dap]CG-NH2; thioether N-14) | 6.76 to 30.3 |  | 4.78 to 72.9 |
| CCCC[C@H]1C(=O)N(C)[C@@H](CCCC)C(=O)N[C@@H](CCCNC(=N)N)C(=O)N[C@H](C(=O)NCC(N)=O)CSCC(=O)N[C@@H](Cc2ccccc2)C(=O)N(C)[C@@H](C)C(=O)N[C@@H](CC(N)=O)C(=O)N2CCC[C@H]2C(=O)N[C@@H](Cc2cnc[nH]2)C(=O)N[C@@H](C(C)CC)C(=O)N(C)CC(=O)N[C@@H](Cc2c[nH]c3ccccc23)C(=O)N[C@@H](CO)C(=O)N[C@@H](Cc2c[nH]c3ccccc23)C(=O)N1C (stereo partly shown) [Example 6011] ({CH2CO}-F[NMeA]NPH[Ile(3ξ)][Sar]WSW[NMeNle][NMeNle]RCG-NH2; thioether N-14) | 6.76 to 30.3 | 4.78 to 72.9 |  |
| CCCC[C@H]1C(=O)N(C)[C@@H](CCCC)C(=O)N[C@@H](CCCNC(=N)N)C(=O)N[C@H](C(=O)NCC(N)=O)CSCC(=O)N[C@@H](Cc2ccc(O)cc2)C(=O)N(C)[C@@H](C)C(=O)N[C@@H](CC(N)=O)C(=O)N2CC(F)(F)CC2C(=O)N[C@@H](Cc2cnc[nH]2)C(=O)N[C@@H](CC(C)C)C(=O)N2CCC[C@H]2C(=O)NC(Cc2c[nH]c3ccccc23)C(=O)N[C@@H](CO)C(=O)N[C@@H](Cc2csc3ccccc23)C(=O)N1C (stereo partly shown) [Example 1048] ({CH2CO}-Y[NMeA]N[ξPro(4,4-F2)]HLP[ξW]S[Bta][NMeNle][NMeNle]RCG-NH2; thioether N-14) | 6.76 to 30.3 |  | 0.158 to 4.71 |
